{"source": "paper PMC12015242", "about": "“A universal cannabinoid CB1 and CB2 receptor TR-FRET kinetic ligand-binding assay” (Frontiers in Pharmacology, 2025)", "key": {"[1]": {"target": "T1, human CB1R (SNAP-CB1R91–472) (Homo sapiens, UniProt P21554)", "T1 construct": "SNAP-tagged human CB1R or CB2R (SNAP-CB1R91–472 and SNAP-CB2); 5HT3A signal peptide (N, cleaved yes); expressed in transfected cells; membranes", "T1 sequence (P21554 91-472)": "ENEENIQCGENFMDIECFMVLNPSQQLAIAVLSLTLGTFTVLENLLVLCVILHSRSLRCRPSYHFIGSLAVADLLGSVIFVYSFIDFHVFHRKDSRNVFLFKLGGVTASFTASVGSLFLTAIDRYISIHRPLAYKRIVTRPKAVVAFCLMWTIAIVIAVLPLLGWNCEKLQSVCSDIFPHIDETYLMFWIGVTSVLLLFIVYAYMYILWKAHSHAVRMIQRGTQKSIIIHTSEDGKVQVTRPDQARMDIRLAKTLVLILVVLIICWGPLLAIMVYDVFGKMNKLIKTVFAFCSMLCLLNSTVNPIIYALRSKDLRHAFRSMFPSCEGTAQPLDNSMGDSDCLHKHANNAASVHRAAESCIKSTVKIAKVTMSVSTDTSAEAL", "assay": "Fluorescent ligand kinetic association binding, TR-FRET", "conditions": "25°C; for time required for equilibrium: 15 min data collection period", "experimental": "(§1) Experiments were performed using T-REx™-293 cell membranes expressing SNAP-tagged human CB1R or CB2R (SNAP-CB1R91–472 and SNAP-CB2). All the assays were conducted at either 25°C or 37°C in white 384-well OptiPlate plates (PerkinElmer) using the PHERAstar FSX microplate reader (BMG Labtech). The TRF 337/620/520 optic module was used for all assays, except for tracer MKA-136, where the TRF 337/570/490 module was utilized. Each well was excited with four laser flashes, and signal detection was performed with a 100-μs delay, integrating the signal over 700 μs.\n(§2) Assay buffer comprised HBSS (Hanks’ Balanced Salt Solution) containing 5 mM HEPES, 0.5% BSA, and 0.02% Pluronic F-127 at pH 7.4. BSA (0.5%) and 0.02% Pluronic F-127 were used to minimize the non-specific binding of hydrophobic compounds to plasticware. Membranes were preincubated with 100 μM of GppNHp at 25 or 37°C for 15 min prior to addition to the plate using automatic injectors to ensure early time points could be measured with accuracy. GppNHp is a non-hydrolyzable GTP analog that will bind to G proteins and promote the dissociation of G proteins from the receptor. This way, we promote a single population of receptors (uncoupled from G proteins) avoiding a mixed population (i.e., uncoupled receptors (R) and receptors coupled to GDP bound G proteins, or G proteins alone (RG)). Adding GTP analogs is a common strategy used in GPCR binding studies to ensure a homogeneous single-state receptor population and simplify the analysis.\n(§3) To control for potential plate position effects, plate layouts were varied between independent experiments. […] D77 stock was prepared at 100x the final concentration, and 0.4 μL was added to the wells. DMSO was held constant at 2% for all assay points, including the saturation and competition binding experiments, as reflected in the text.\n(§4) Fluorescent ligand binding to CB1R and CB2R was assessed via HTRF detection, allowing the construction of association binding curves. For fluorescent ligand characterization, six increasing concentrations of fluorescent ligands were prepared, and cell membranes containing human CB1R or CB2R (1 μg/well) were added (at t = 0) in a total volume of 40 μL containing 2% DMSO at 25 or 37°C, with gentle agitation. […] As the wells are read sequentially, we restricted the readout of kinetic data of two ligands per experimental run to reduce the minimum reading cycle time.\n(§5) D77 association data were fitted to a global fitting model using GraphPad Prism 9.2 to simultaneously calculate k on and k off using the following equation, where k obs equals the observed rate of association and L is the concentration of D77: kobs=L⋅kon+koff (3)"}, "human CB2R (SNAP-CB2) [2]": {"target": "T2, human CB2R (SNAP-CB2) (Homo sapiens, UniProt P34972)", "T2 construct": "truncated CB1R (CB1R91-472) and full-length CB2R (CB2R1–360); 5HT3A signal peptide (N, cleaved yes); expressed in transfected cells; membranes", "T2 sequence (P34972 whole entry, the tested form may be a part)": "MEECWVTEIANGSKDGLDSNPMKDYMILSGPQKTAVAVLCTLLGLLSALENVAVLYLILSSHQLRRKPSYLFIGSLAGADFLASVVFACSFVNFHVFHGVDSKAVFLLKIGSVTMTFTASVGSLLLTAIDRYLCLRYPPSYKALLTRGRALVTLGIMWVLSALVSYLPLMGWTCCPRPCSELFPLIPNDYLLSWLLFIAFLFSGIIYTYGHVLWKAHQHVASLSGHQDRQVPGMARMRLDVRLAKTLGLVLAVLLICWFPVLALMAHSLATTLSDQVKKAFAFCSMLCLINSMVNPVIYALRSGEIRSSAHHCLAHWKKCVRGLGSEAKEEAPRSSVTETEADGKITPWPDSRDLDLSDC", "assay": "Fluorescent ligand kinetic association binding, TR-FRET", "conditions": "25°C; for time required for equilibrium: 15 min data collection period", "experimental": "as §1, §2, §3, §4, §5"}, "human CB2R (SNAP-CB2) [3]": {"target": "T2, human CB2R (SNAP-CB2)", "type": "binding", "conditions": "37°C, D77 900 nM, 15-min incubation"}, "human CB2R (SNAP-CB2) [4]": {"target": "T2, human CB2R (SNAP-CB2)", "type": "binding"}, "[5]": {"target": "T1, human CB1R (SNAP-CB1R91–472)", "assay": "biochemical", "type": "binding"}, "CB2R": {"system": "CB2R", "conditions": "25°C, radioligand kinetic binding assay, ref Martella et al., 2017; cited from earlier work"}, "[6]": {"target": "T1, human CB1R (SNAP-CB1R91–472)", "assay": "biochemical", "type": "binding", "remark": "listed apart in the source"}, "truncated CB1R91-472": {"target": "T3, truncated CB1R91-472 (Homo sapiens, UniProt P21554)", "T3 construct": "5HT3A signal peptide (N, cleaved yes); expressed in transfected cells; host or cells: T-REx-293 cells, tetracycline-induced, co-expressing the Gi-CASE biosensor", "T3 sequence (P21554 91-472)": "as the sequence (P21554 91-472) above", "type": "cell-based"}, "full length CB1R WT": {"target": "T4, full length CB1R WT (Homo sapiens, UniProt P21554)", "T4 construct": "5HT3A signal peptide (N, cleaved yes); expressed in transfected cells; host or cells: T-REx-293 cells, tetracycline-induced, co-expressing the Gi-CASE biosensor", "T4 sequence (P21554 whole entry)": "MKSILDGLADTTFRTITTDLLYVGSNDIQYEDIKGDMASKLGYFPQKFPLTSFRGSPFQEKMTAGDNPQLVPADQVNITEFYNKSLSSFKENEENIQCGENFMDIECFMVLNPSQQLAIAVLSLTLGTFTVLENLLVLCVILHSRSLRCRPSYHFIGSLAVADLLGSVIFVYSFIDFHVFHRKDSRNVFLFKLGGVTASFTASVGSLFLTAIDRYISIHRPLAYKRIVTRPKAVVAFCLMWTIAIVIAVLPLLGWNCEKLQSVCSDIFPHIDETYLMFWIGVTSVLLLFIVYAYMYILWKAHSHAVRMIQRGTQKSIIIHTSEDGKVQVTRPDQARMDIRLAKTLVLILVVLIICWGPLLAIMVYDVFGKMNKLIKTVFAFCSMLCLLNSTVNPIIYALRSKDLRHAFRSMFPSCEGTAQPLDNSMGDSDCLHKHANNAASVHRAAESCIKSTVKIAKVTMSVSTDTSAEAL", "type": "cell-based"}}, "note": "Where two headings read alike, the source gives them in different places."}
{"compound": "CCOC(=O)C(CC)(CCCSCCOCCOCCNc1ccc([N+](=O)[O-])c2nonc12)NC(=O)c1ccc(C2CC2)c(Cc2ccc(F)cc2)n1", "note": "(stereo not shown) [NBD-691]", "values": [{"measurement": "pKd of fluorescent tracer", "setting": "[1]", "value": "6.04 ± 0.01"}, {"measurement": "koff of fluorescent tracer", "setting": "human CB2R (SNAP-CB2) [2]", "value": "1.25 ± 0.06", "unit": "min⁻¹"}, {"measurement": "pKd of fluorescent tracer", "setting": "human CB2R (SNAP-CB2) [2]", "value": "7.20 ± 0.01"}]}
{"compound": "CCCCCCC(C)(C)c1cc(OC)c(C2C=C(CNC(=O)CCCCCCNc3ccc([N+](=O)[O-])c4nonc34)C3CC2C3(C)C)c(OC)c1", "note": "(stereo not shown) [MKA-115]", "values": [{"measurement": "time required for equilibrium", "setting": "[1]", "value": "> 15", "unit": "min"}, {"measurement": "time required for equilibrium", "setting": "human CB2R (SNAP-CB2) [2]", "value": "> 15", "unit": "min"}]}
{"compound": "CCOC(=O)C(CC)(CCCSCCOCCNc1ccc([N+](=O)[O-])c2nonc12)NC(=O)c1ccc(C2CC2)c(Cc2ccc(F)cc2)n1", "note": "(stereo not shown) [NBD-690]", "values": [{"measurement": "koff of fluorescent tracer", "setting": "[1]", "value": "7.67 ± 0.44", "unit": "min⁻¹"}, {"measurement": "pKd of fluorescent tracer", "setting": "[1]", "value": "6.13 ± 0.09"}, {"measurement": "koff of fluorescent tracer", "setting": "human CB2R (SNAP-CB2) [2]", "value": "0.97 ± 0.05", "unit": "min⁻¹"}, {"measurement": "pKd of fluorescent tracer", "setting": "human CB2R (SNAP-CB2) [2]", "value": "7.15 ± 0.02"}]}
{"compound": "CCCCCc1cc(O)c2c(c1)OC(C)(C)[C@@H]1CC=C(CNC(=O)CCCCCCNc3ccc([N+](=O)[O-])c4nonc34)C[C@@H]21", "note": "[MKA-136]", "values": [{"measurement": "time required for equilibrium", "setting": "[1]", "value": "> 15", "unit": "min"}, {"measurement": "koff of fluorescent tracer", "setting": "human CB2R (SNAP-CB2) [2]", "value": "0.21 ± 0.07", "unit": "min⁻¹"}, {"measurement": "pKd of fluorescent tracer", "setting": "human CB2R (SNAP-CB2) [2]", "value": "6.71 ± 0.41"}, {"measurement": "time required for equilibrium", "setting": "human CB2R (SNAP-CB2) [2]", "value": "> 15", "unit": "min"}]}
{"compound": "CCCCCc1cc(O)c2c(c1)OC(C)(C)[C@@H]1CC=C(CNC(=O)CCCCC[n+]3cc(S(=O)(=O)[O-])ccc3/C=C/c3cc4ccc(N(CC)CC)cc4oc3=O)C[C@@H]21", "note": "[MKA-138]", "values": [{"measurement": "koff of fluorescent tracer", "setting": "[1]", "value": "9.00 ± 1.80", "unit": "min⁻¹"}, {"measurement": "pKd of fluorescent tracer", "setting": "[1]", "value": "6.31 ± 0.05"}, {"measurement": "koff of fluorescent tracer", "setting": "human CB2R (SNAP-CB2) [2]", "value": "0.92 ± 0.09", "unit": "min⁻¹"}, {"measurement": "pKd of fluorescent tracer", "setting": "human CB2R (SNAP-CB2) [2]", "value": "6.97 ± 0.08"}]}
{"compound": "CCCCC/C=C\\C/C=C\\C/C=C\\C/C=C\\CCCC(=O)OC(CO)CO", "note": "[2-AG]", "values": [{"measurement": "pK i", "setting": "human CB2R (SNAP-CB2) [3]", "value": "5.81 ± 0.03"}, {"measurement": "pKd (kinetic)", "setting": "human CB2R (SNAP-CB2) [4]; 25°C", "value": "6.36 ± 0.06"}, {"measurement": "pK d (kinetic)", "setting": "human CB2R (SNAP-CB2) [4]; 37°C", "value": "5.92 ± 0.04"}]}
{"compound": "SR 144528", "values": [{"measurement": "k off", "setting": "[5]", "value": "4.99 ± 0.73", "unit": "min⁻¹"}, {"measurement": "koff", "setting": "[5]", "value": "2.32 ± 0.20", "unit": "min⁻¹"}, {"measurement": "Residence time (Rt) (s)", "setting": "human CB2R (SNAP-CB2) [4]; 25°C", "value": "379 ± 27", "unit": "s"}, {"measurement": "koff", "setting": "human CB2R (SNAP-CB2) [4]; 25°C", "value": "0.16 ± 0.01", "unit": "min⁻¹"}, {"measurement": "Residence time (Rt) (min)", "setting": "human CB2R (SNAP-CB2) [4]; 25°C, listed as SR 144,528", "value": 6.3, "unit": "min"}, {"measurement": "Residence time (Rt) (min)", "setting": "human CB2R (SNAP-CB2) [4]; 25°C, listed as SR-144528", "value": "6.32 ± 0.45", "unit": "min"}, {"measurement": "k off", "setting": "human CB2R (SNAP-CB2) [4]; 37°C", "value": "0.69 ± 0.03", "unit": "min⁻¹"}, {"measurement": "k on", "setting": "human CB2R (SNAP-CB2) [4]; 37°C", "value": "(2.47 ± 0.16) × 10^8 M^−1 min^−1"}, {"measurement": "k on (text, shared exponent)", "setting": "human CB2R (SNAP-CB2) [4]; 37°C", "value": "2.5e+08", "unit": "M⁻¹ min⁻¹"}, {"measurement": "Residence time (Rt) (min)", "setting": "human CB2R (SNAP-CB2) [4]; 37°C, Rt = 1/k off", "value": "1.46 ± 0.07", "unit": "min"}, {"measurement": "Residence time (Rt) (s)", "setting": "human CB2R (SNAP-CB2) [4]; 37°C, Rt = 1/k off", "value": "87 ± 4", "unit": "s"}, {"measurement": "residence time", "setting": "CB2R", "value": 8.7, "unit": "min"}]}
{"compound": "CCCCCCC(C)(C)c1cc(OC)c([C@@H]2C=C(CO)[C@@H]3C[C@H]2C3(C)C)c(OC)c1", "note": "[HU-308]", "values": [{"measurement": "Kd", "setting": "[5]; pK d (kinetic)", "value": 4.47, "unit": "µM"}, {"measurement": "Kd", "setting": "[5]; pKd (kinetic)", "value": 4.27, "unit": "µM"}, {"measurement": "Ki", "setting": "[6]", "value": 3.89, "unit": "µM"}]}
{"compound": "CCCCCCC(C)(C)c1cc(O)c2c(c1)OC(C)(C)[C@@H]1CC=C(CO)C[C@@H]21", "note": "[HU-210]", "values": [{"measurement": "Emax (%)", "setting": "truncated CB1R91-472", "value": "104.1 ± 4.7", "unit": "%"}, {"measurement": "pEC50", "setting": "truncated CB1R91-472", "value": "9.15 ± 0.09"}, {"measurement": "Emax (%)", "setting": "full length CB1R WT", "value": "98.2 ± 6.8", "unit": "%"}, {"measurement": "pEC50", "setting": "full length CB1R WT", "value": "8.97 ± 0.08"}, {"measurement": "pK d (kinetic)", "setting": "[5]", "value": "8.65 ± 0.01"}, {"measurement": "pKd (kinetic)", "setting": "[5]", "value": "8.64 ± 0.02"}, {"measurement": "pK i", "setting": "[6]", "value": "7.99 ± 0.01"}]}
{"compound": "CCOC(=O)C(CC)(CCCSCCOCCOCCOCCNc1ccc([N+](=O)[O-])c2nonc12)NC(=O)c1ccc(C2CC2)c(Cc2ccc(F)cc2)n1", "note": "(stereo not shown) [NBD-694]", "values": [{"measurement": "pKd of fluorescent tracer", "setting": "[1]", "value": "6.02 ± 0.01"}, {"measurement": "koff of fluorescent tracer", "setting": "human CB2R (SNAP-CB2) [2]", "value": "2.34 ± 0.22", "unit": "min⁻¹"}, {"measurement": "pKd of fluorescent tracer", "setting": "human CB2R (SNAP-CB2) [2]", "value": "6.97 ± 0.01"}]}
{"compound": "CCOC(=O)C(CC)(CCCSCCOCCOCCOCCOCCNc1ccc([N+](=O)[O-])c2nonc12)NC(=O)c1ccc(C2CC2)c(Cc2ccc(F)cc2)n1", "note": "(stereo not shown) [NBD-698]", "values": [{"measurement": "koff of fluorescent tracer", "setting": "[1]", "value": "9.93 ± 0.24", "unit": "min⁻¹"}, {"measurement": "pKd of fluorescent tracer", "setting": "[1]", "value": "6.22 ± 0.01"}, {"measurement": "koff of fluorescent tracer", "setting": "human CB2R (SNAP-CB2) [2]", "value": "2.85 ± 0.40", "unit": "min⁻¹"}, {"measurement": "pKd of fluorescent tracer", "setting": "human CB2R (SNAP-CB2) [2]", "value": "6.93 ± 0.05"}]}
